Experiments:
[1] = tested on: decay fungi; experiment: AWPA E7-01 field stake test, decay ratings, Gainesville, Florida; format: in vivo; parameters: Average Decay Ratings: scale not given here
Method: (§1) Preservative treating solutions were prepared by the mixing the concentrates in Example 1 with ethanol. The treated stakes were installed in Gainesville, Fla. for field performance evaluation following the procedure described in American Wood Preservers' Association (AWPA) Standard E7-01: “Standard Method of Evaluating Wood Preservatives by Field Tests with Stakes”.
(§2) Preservative treating solutions were prepared by the mixing the concentrates in Example 1 with toluene. The treated stakes were installed in Gainesville, Fla. for field performance evaluation following the procedure described in American Wood Preservers' Association (AWPA) Standard E7-01: “Standard Method of Evaluating Wood Preservatives by Field Tests with Stakes”.
Preservative treating solutions were prepared by the mixing the concentrates in Example 2 and 13. The treated stakes were installed in Gainesville, Fla. for field performance evaluation following the procedure described in American Wood Preservers' Association (AWPA) Standard E7-01: “Standard Method of Evaluating Wood Preservatives by Field Tests with Stakes”. […]
(§3) Preservative treating solutions were prepared by the mixing the concentrates in Example 1 with white spirits. The treated stakes were installed in Gainesville, Fla. for field performance evaluation following the procedure described in American Wood Preservers' Association (AWPA) Standard E7-01: “Standard Method of Evaluating Wood Preservatives by Field Tests with Stakes”.

[2] = tested on: termites; experiment: AWPA E7-01 field stake test, termite ratings, Gainesville, Florida; format: in vivo; parameters: Average Termite Ratings: scale not given here
Method: as §1, §2
Preservative treating solutions were prepared by the mixing the concentrates in Example 2 and 13. The treated stakes were installed in Gainesville, Fla. for field performance evaluation following the procedure described in American Wood Preservers' Association (AWPA) Standard E7-01: “Standard Method of Evaluating Wood Preservatives by Field Tests with Stakes”.
as §3

[3] = tested on: brown rots or white rots; experiment: Accelerated decay testing in the lab; details: confirmed by accelerated decay testing in the lab
Text: Provided herein is an organic composition and method for use thereof in treatment of cellulosic material, more particularly wood. The composition comprises an azole or quaternary ammonium fungicide compound, and a pyrethroid insecticide. The composition imparts to the treated wood resistance to both fungi and insects. […] This has been confirmed by accelerated decay testing in the lab.

CC(C)(C)C(O)(CCc1ccc(Cl)cc1)Cn1cncn1 (racemic) [Tebuconazole, (RS)-1-p-chlorophenyl-4,4-dimethyl-3-(1H -1,2,4-triazol-1-ylmethyl)pentan-3-ol]
protection / bio-efficacy against fungal attack (in words) ([1]; different retention levels, text summary of Table 1A): certain degree of protection against fungal attack | Average Decay Ratings ([1]; retention 0.32 kg/m^3, 12 months, Table 1A, Example 14 ethanol): 8.2 | Average Decay Ratings ([1]; retention 0.32 kg/m^3, 12 months, Table 2A, Example 15 toluene): 8.2 | Average Decay Ratings ([1]; retention 0.32 kg/m^3, 12 months, Table 3A, Example 16 (concentrates of Examples 2 and 13)): 8.2 | Average Decay Ratings ([1]; retention 0.32 kg/m^3, 24 months, Table 1A, Example 14 ethanol): 2.6 | Average Decay Ratings ([1]; retention 0.32 kg/m^3, 24 months, Table 2A, Example 15 toluene): 2.6 | Average Decay Ratings ([1]; retention 0.32 kg/m^3, 24 months, Table 3A, Example 16 (concentrates of Examples 2 and 13)): 2.6 | Average Decay Ratings ([1]; retention 0.32 kg/m^3, 36 months, Table 1A, Example 14 ethanol): 0.0 | Average Decay Ratings ([1]; retention 0.32 kg/m^3, 36 months, Table 2A, Example 15 toluene): 0.0 | Average Decay Ratings ([1]; retention 0.32 kg/m^3, 36 months, Table 3A, Example 16 (concentrates of Examples 2 and 13)): 0.0 | Average Decay Ratings ([1]; retention 0.32 kg/m^3, 48 months, Table 1A, Example 14 ethanol): 0.0 | Average Decay Ratings ([1]; retention 0.32 kg/m^3, 48 months, Table 2A, Example 15 toluene): 0.0 | Average Decay Ratings ([1]; retention 0.32 kg/m^3, 48 months, Table 3A, Example 16 (concentrates of Examples 2 and 13)): 0.0 | Average Decay Ratings ([1]; retention 0.48 kg/m^3, 12 months, Table 1A, Example 14 ethanol): 5.8 | Average Decay Ratings ([1]; retention 0.48 kg/m^3, 12 months, Table 2A, Example 15 toluene): 5.8 | Average Decay Ratings ([1]; retention 0.48 kg/m^3, 12 months, Table 3A, Example 16 (concentrates of Examples 2 and 13)): 5.8 | Average Decay Ratings ([1]; retention 0.48 kg/m^3, 24 months, Table 1A, Example 14 ethanol): 0.8 | Average Decay Ratings ([1]; retention 0.48 kg/m^3, 24 months, Table 2A, Example 15 toluene): 0.8 | Average Decay Ratings ([1]; retention 0.48 kg/m^3, 24 months, Table 3A, Example 16 (concentrates of Examples 2 and 13)): 0.8 | Average Decay Ratings ([1]; retention 0.48 kg/m^3, 36 months, Table 1A, Example 14 ethanol): 0.0 | Average Decay Ratings ([1]; retention 0.48 kg/m^3, 36 months, Table 2A, Example 15 toluene): 0.0 | Average Decay Ratings ([1]; retention 0.48 kg/m^3, 36 months, Table 3A, Example 16 (concentrates of Examples 2 and 13)): 0.0 | Average Decay Ratings ([1]; retention 0.48 kg/m^3, 48 months, Table 1A, Example 14 ethanol): 0.0 | Average Decay Ratings ([1]; retention 0.48 kg/m^3, 48 months, Table 2A, Example 15 toluene): 0.0 | Average Decay Ratings ([1]; retention 0.48 kg/m^3, 48 months, Table 3A, Example 16 (concentrates of Examples 2 and 13)): 0.0 | Average Decay Ratings ([1]; retention 0.64 kg/m^3, 12 months, Table 1A, Example 14 ethanol): 8.7 | Average Decay Ratings ([1]; retention 0.64 kg/m^3, 12 months, Table 2A, Example 15 toluene): 8.7 | Average Decay Ratings ([1]; retention 0.64 kg/m^3, 12 months, Table 3A, Example 16 (concentrates of Examples 2 and 13)): 8.7 | Average Decay Ratings ([1]; retention 0.64 kg/m^3, 24 months, Table 1A, Example 14 ethanol): 1.2 | Average Decay Ratings ([1]; retention 0.64 kg/m^3, 24 months, Table 2A, Example 15 toluene): 1.2 | Average Decay Ratings ([1]; retention 0.64 kg/m^3, 24 months, Table 3A, Example 16 (concentrates of Examples 2 and 13)): 1.2 | Average Decay Ratings ([1]; retention 0.64 kg/m^3, 36 months, Table 1A, Example 14 ethanol): 0.0 | Average Decay Ratings ([1]; retention 0.64 kg/m^3, 36 months, Table 2A, Example 15 toluene): 0.0 | Average Decay Ratings ([1]; retention 0.64 kg/m^3, 36 months, Table 3A, Example 16 (concentrates of Examples 2 and 13)): 0.0 | Average Decay Ratings ([1]; retention 0.64 kg/m^3, 48 months, Table 1A, Example 14 ethanol): 0.0 | Average Decay Ratings ([1]; retention 0.64 kg/m^3, 48 months, Table 2A, Example 15 toluene): 0.0 | Average Decay Ratings ([1]; retention 0.64 kg/m^3, 48 months, Table 3A, Example 16 (concentrates of Examples 2 and 13)): 0.0 | insect / termite attack on treated wood (in words) ([2]; different retention levels, text summary of Table 1B): severe insect attack | Average Termite Ratings ([2]; retention 0.32 kg/m^3, 12 months, Table 1B, Example 14 ethanol): 4.2 | Average Termite Ratings ([2]; retention 0.32 kg/m^3, 12 months, Table 2B, Example 15 toluene): 4.2 | Average Termite Ratings ([2]; retention 0.32 kg/m^3, 12 months, Table 3B, Example 16 (concentrates of Examples 2 and 13)): 4.2 | Average Termite Ratings ([2]; retention 0.32 kg/m^3, 24 months, Table 1B, Example 14 ethanol): 0.6 | Average Termite Ratings ([2]; retention 0.32 kg/m^3, 24 months, Table 2B, Example 15 toluene): 0.6 | Average Termite Ratings ([2]; retention 0.32 kg/m^3, 24 months, Table 3B, Example 16 (concentrates of Examples 2 and 13)): 0.6 | Average Termite Ratings ([2]; retention 0.32 kg/m^3, 36 months, Table 1B, Example 14 ethanol): 0.0 | Average Termite Ratings ([2]; retention 0.32 kg/m^3, 36 months, Table 2B, Example 15 toluene): 0.0 | Average Termite Ratings ([2]; retention 0.32 kg/m^3, 36 months, Table 3B, Example 16 (concentrates of Examples 2 and 13)): 0.0 | Average Termite Ratings ([2]; retention 0.32 kg/m^3, 48 months, Table 1B, Example 14 ethanol): 0.0 | Average Termite Ratings ([2]; retention 0.32 kg/m^3, 48 months, Table 2B, Example 15 toluene): 0.0 | Average Termite Ratings ([2]; retention 0.32 kg/m^3, 48 months, Table 3B, Example 16 (concentrates of Examples 2 and 13)): 0.0 | Average Termite Ratings ([2]; retention 0.48 kg/m^3, 12 months, Table 1B, Example 14 ethanol): 4.5 | Average Termite Ratings ([2]; retention 0.48 kg/m^3, 12 months, Table 2B, Example 15 toluene): 4.5 | Average Termite Ratings ([2]; retention 0.48 kg/m^3, 12 months, Table 3B, Example 16 (concentrates of Examples 2 and 13)): 4.5 | Average Termite Ratings ([2]; retention 0.48 kg/m^3, 24 months, Table 1B, Example 14 ethanol): 1.2 | Average Termite Ratings ([2]; retention 0.48 kg/m^3, 24 months, Table 2B, Example 15 toluene): 1.2 | Average Termite Ratings ([2]; retention 0.48 kg/m^3, 24 months, Table 3B, Example 16 (concentrates of Examples 2 and 13)): 1.2 | Average Termite Ratings ([2]; retention 0.48 kg/m^3, 36 months, Table 1B, Example 14 ethanol): 0.0 | Average Termite Ratings ([2]; retention 0.48 kg/m^3, 36 months, Table 2B, Example 15 toluene): 0.0 | Average Termite Ratings ([2]; retention 0.48 kg/m^3, 36 months, Table 3B, Example 16 (concentrates of Examples 2 and 13)): 0.0 | Average Termite Ratings ([2]; retention 0.48 kg/m^3, 48 months, Table 1B, Example 14 ethanol): 0.0 | Average Termite Ratings ([2]; retention 0.48 kg/m^3, 48 months, Table 2B, Example 15 toluene): 0.0 | Average Termite Ratings ([2]; retention 0.48 kg/m^3, 48 months, Table 3B, Example 16 (concentrates of Examples 2 and 13)): 0.0 | Average Termite Ratings ([2]; retention 0.64 kg/m^3, 12 months, Table 1B, Example 14 ethanol): 4.8 | Average Termite Ratings ([2]; retention 0.64 kg/m^3, 12 months, Table 2B, Example 15 toluene): 4.8 | Average Termite Ratings ([2]; retention 0.64 kg/m^3, 12 months, Table 3B, Example 16 (concentrates of Examples 2 and 13)): 4.8 | Average Termite Ratings ([2]; retention 0.64 kg/m^3, 24 months, Table 1B, Example 14 ethanol): 2.0 | Average Termite Ratings ([2]; retention 0.64 kg/m^3, 24 months, Table 2B, Example 15 toluene): 2.0 | Average Termite Ratings ([2]; retention 0.64 kg/m^3, 24 months, Table 3B, Example 16 (concentrates of Examples 2 and 13)): 2.0 | Average Termite Ratings ([2]; retention 0.64 kg/m^3, 36 months, Table 1B, Example 14 ethanol): 0.0 | Average Termite Ratings ([2]; retention 0.64 kg/m^3, 36 months, Table 2B, Example 15 toluene): 0.0 | Average Termite Ratings ([2]; retention 0.64 kg/m^3, 36 months, Table 3B, Example 16 (concentrates of Examples 2 and 13)): 0.0 | Average Termite Ratings ([2]; retention 0.64 kg/m^3, 48 months, Table 1B, Example 14 ethanol): 0.0 | Average Termite Ratings ([2]; retention 0.64 kg/m^3, 48 months, Table 2B, Example 15 toluene): 0.0 | Average Termite Ratings ([2]; retention 0.64 kg/m^3, 48 months, Table 3B, Example 16 (concentrates of Examples 2 and 13)): 0.0

Cc1c(COC(=O)[C@@H]2[C@H](/C=C(\Cl)C(F)(F)F)C2(C)C)cccc1-c1ccccc1 (racemic) [bifenthrin]
fungicidal activity against brown rots or white rots [3]: do not have fungicidal activity

CC1(C)C(C=C(Cl)Cl)C1C(=O)OC(C#N)c1cccc(Oc2ccccc2)c1 (centres unmarked) [cypermethrin]
fungicidal activity against brown rots or white rots [3]: do not have fungicidal activity

CC1(C)C(C=C(Cl)Cl)C1C(=O)OCc1cccc(Oc2ccccc2)c1 (centres unmarked) [permethrin]
fungicidal activity against brown rots or white rots [3]: do not have fungicidal activity

Reference: patent US20070021385A1, “Compositions and methods for wood preservation” (priority 2005, published 2007)
